Results from patent US4298610A, “Ester derivatives of quinolopyran-4-one-2-carboxylic acids and antiallergic antasthmatics” (priority 1978, dated 1981).

System: passive cutaneous anaphylaxis
Experiment: passive cutaneous anaphylaxis test (P.C.A.) on rats, oral administration
Type: in vivo, rat (SLC Wister)
Conditions: 0.5 h, rat, antigen 30 minutes after administration, read-out: Percent inhibition (%)
Description: Various 5-hydroxy-quinolopyran-4-one-2-carboxylic acid esters in terms of the R group represented by the general formula [I] were prepared. […] In order to estimate the efficacy of each compound as an anti-allergic antasthmatic, the efficacy was evaluated according to a passive cutaneous anaphylaxis test (P.C.A.) on rats.
To SLC Wister rats were administered intracutaneously egg white albumin recrystallized 5 times and Bodetallapertussis Vaccine, and serum was collected after 13 days from the rats. […] A physiological salt solution in which egg white albumin and a dye (Evans' blue) were dissolved was administered intravenously, 30 minutes after the oral administration, to the rats; and 30 minutes thereafter the back skins of the rats were peeled off. The dye that transuded from the peeled skin was extracted with Na2 SO4 and acetone, and the quantities of the dye were measured by colorimetry at 620 m μ.

Question: Which inhibition in vivo at 30 mg/kg does the source give for Cc1ccc2c(nc(O)c3c(=O)cc(C(=O)OC4CCCCC4)oc32)c1C [1-cyclohexyl ester of 7,8-dimethyl-5-hydroxy-quinolo[4,3-b]pyran-4-one-2-carboxylic acid, reference compound] here?
Answer: Its inhibition in vivo at 30 mg/kg is 33.7%.

Question: Which inhibition in vivo at 30 mg/kg does the source give for Cc1ccc2c(nc(O)c3c(=O)cc(C(=O)OCC(C)(C)C)oc32)c1C [2,2-dimethyl-1-propyl ester of 7,8-dimethyl-5-hydroxy-quinolo[4,3-b]pyran-4-one-2-carboxylic acid] here?
Answer: The inhibition in vivo at 30 mg/kg was 93.2%.

Question: With Cc1ccc2nc(O)c3c(=O)cc(C(=O)OCC(C)(C)C)oc3c2c1 [2,2-dimethyl-1-propyl ester of 9-methyl-5-hydroxy-quinolo[4,3-b]pyran-4-one-2-carboxylic acid] as the compound, how does the inhibition in vivo at 30 mg/kg read?
Answer: Its inhibition in vivo at 30 mg/kg is 58.4%.

Question: With Cc1ccc2c(nc(O)c3c(=O)cc(C(=O)OCC(O)CO)oc32)c1C (centres unmarked) [2,3-dihydroxy-propyl ester of 7,8-dimethyl-5-hydroxy-quinolo[4,3-b]pyran-4-one-2-carboxylic acid, reference compound] as the compound, how does the inhibition in vivo at 100 mg/kg read?
Answer: The inhibition in vivo at 100 mg/kg was 8.6%.

Question: With CCC(CC)COC(=O)c1cc(=O)c2c(O)nc3c(C)c(C)ccc3c2o1 [2-ethyl-1-butyl ester of 7,8-dimethyl-5-hydroxy-quinolo[4,3-b]pyran-4-one-2-carboxylic acid, reference compound] as the compound, how does the inhibition in vivo at 30 mg/kg read?
Answer: Its inhibition in vivo at 30 mg/kg is 49.1%.

Question: How did the inhibition in vivo at 30 mg/kg turn out when CCCCC(C)OC(=O)c1cc(=O)c2c(O)nc3c(C)c(C)ccc3c2o1 (centres unmarked) [2-hexyl ester of 7,8-dimethyl-5-hydroxy-quinolo[4,3-b]pyran-4-one-2-carboxylic acid] was run?
Answer: The inhibition in vivo at 30 mg/kg was 94.7%.

Question: How did the inhibition in vivo at 100 mg/kg turn out when Cc1ccc2c(nc(O)c3c(=O)cc(C(=O)OCCO)oc32)c1C [2-hydroxy-ethyl ester of 7,8-dimethyl-5-hydroxy-quinolo[4,3-b]pyran-4-one-2-carboxylic acid, reference compound] was run?
Answer: The inhibition in vivo at 100 mg/kg was 21.4%.

Question: For CCC(C)COC(=O)c1cc(=O)c2c(O)nc3c(C)c(C)ccc3c2o1 (centres unmarked) [2-methyl-1-butyl ester of 7,8-dimethyl-5-hydroxy-quinolo[4,3-b]pyran-4-one-2-carboxylic acid], which inhibition in vivo at 30 mg/kg is on record?
Answer: Its inhibition in vivo at 30 mg/kg is 99.8%.

Question: For CCC(C)COC(=O)c1cc(=O)c2c(O)nc3ccc(C)cc3c2o1 (centres unmarked) [2-methyl-1-butyl ester of 9-methyl-5-hydroxy-quinolo[4,3-b]pyran-4-one-2-carboxylic acid], which inhibition in vivo at 30 mg/kg is on record?
Answer: Its inhibition in vivo at 30 mg/kg is 83%.

Question: How did the inhibition in vivo at 30 mg/kg turn out when CCCC(C)COC(=O)c1cc(=O)c2c(O)nc3ccc(C)cc3c2o1 (centres unmarked) [2-methyl-1-pentyl ester of 9-methyl-5-hydroxy-quinolo[4,3-b]pyran-4-one-2-carboxylic acid] was run?
Answer: Its inhibition in vivo at 30 mg/kg is 83.8%.

Question: With Cc1ccc2c(nc(O)c3c(=O)cc(C(=O)OCC(C)C)oc32)c1C [2-methyl-1-propyl ester of 7,8-dimethyl-5-hydroxy-quinolo[4,3-b]pyran-4-one-2-carboxylic acid, reference compound] as the compound, how does the inhibition in vivo at 30 mg/kg read?
Answer: Its inhibition in vivo at 30 mg/kg is 2.5%.

Question: Which inhibition in vivo at 30 mg/kg does the source give for CCC(OC(=O)c1cc(=O)c2c(O)nc3c(C)c(C)ccc3c2o1)C(C)C (centres unmarked) [2-methyl-3-pentyl ester of 7,8-dimethyl-5-hydroxy-quinolo[4,3-b]pyran-4-one-2-carboxylic acid, reference compound] here?
Answer: The inhibition in vivo at 30 mg/kg was 32.1%.

Question: For CCCC(C)OC(=O)c1cc(=O)c2c(O)nc3c(C)c(C)ccc3c2o1 (centres unmarked) [2-pentyl ester of 7,8-dimethyl-5-hydroxy-quinolo[4,3-b]pyran-4-one-2-carboxylic acid], which inhibition in vivo at 30 mg/kg is on record?
Answer: Its inhibition in vivo at 30 mg/kg is 95.1%.

Question: For CCCC(C)OC(=O)c1cc(=O)c2c(O)nc3ccc(C)cc3c2o1 (centres unmarked) [2-pentyl ester of 9-methyl-5-hydroxy-quinolo[4,3-b]pyran-4-one-2-carboxylic acid], which inhibition in vivo at 30 mg/kg is on record?
Answer: The inhibition in vivo at 30 mg/kg was 70%.

Question: With Cc1ccc2c(nc(O)c3c(=O)cc(C(=O)OCCC(C)(C)C)oc32)c1C [3,3-dimethyl-1-butyl ester of 7,8-dimethyl-5-hydroxy-quinolo[4,3-b]pyran-4-one-2-carboxylic acid, reference compound] as the compound, how does the inhibition in vivo at 30 mg/kg read?
Answer: The inhibition in vivo at 30 mg/kg was 26.5%.

Question: Cc1ccc2c(nc(O)c3c(=O)cc(C(=O)OC(C)C(C)(C)C)oc32)c1C (centres unmarked) [3,3-dimethyl-2-butyl ester of 7,8-dimethyl-5-hydroxy-quinolo[4,3-b]pyran-4-one-2-carboxylic acid, reference compound] was tested. Which inhibition in vivo at 30 mg/kg did it give?
Answer: Its inhibition in vivo at 30 mg/kg is 42.7%.

Question: How did the inhibition in vivo at 30 mg/kg turn out when CCCC(CC)OC(=O)c1cc(=O)c2c(O)nc3c(C)c(C)ccc3c2o1 (centres unmarked) [3-hexyl ester of 7,8-dimethyl-5-hydroxy-quinolo[4,3-b]pyran-4-one-2-carboxylic acid] was run?
Answer: Its inhibition in vivo at 30 mg/kg is 96.1%.

Question: Which inhibition in vivo at 30 mg/kg does the source give for CCCC(CC)OC(=O)c1cc(=O)c2c(O)nc3ccc(C)cc3c2o1 (centres unmarked) [3-hexyl ester of 9-methyl-5-hydroxy-quinolo[4,3-b]pyran-4-one-2-carboxylic acid] here?
Answer: The inhibition in vivo at 30 mg/kg was 81.8%.

Question: Cc1ccc2c(nc(O)c3c(=O)cc(C(=O)OCCC(C)C)oc32)c1C [3-methyl-1-butyl ester of 7,8-dimethyl-5-hydroxy-quinolo[4,3-b]pyran-4-one-2-carboxylic acid] was tested. Which inhibition in vivo at 30 mg/kg did it give?
Answer: The inhibition in vivo at 30 mg/kg was 95.5%.

Question: COc1cc2nc(O)c3c(=O)cc(C(=O)OCCC(C)C)oc3c2cc1OC [3-methyl-1-butyl ester of 8,9-dimethoxy-5-hydroxy-quinolo[4,3-b]pyran-4-one-2-carboxylic acid] was tested. Which inhibition in vivo at 30 mg/kg did it give?
Answer: The inhibition in vivo at 30 mg/kg was 67.3%.

Question: With CC(C)CCOC(=O)c1cc(=O)c2c(O)nc3ccc(Cl)cc3c2o1 [3-methyl-1-butyl ester of 9-chloro-5-hydroxy-quinolo[4,3-b]pyran-4-one-2-carboxylic acid] as the compound, how does the inhibition in vivo at 30 mg/kg read?
Answer: The inhibition in vivo at 30 mg/kg was 59.5%.

Question: CCOC(=O)c1ccc2nc(O)c3c(=O)cc(C(=O)OCCC(C)C)oc3c2c1 [3-methyl-1-butyl ester of 9-ethoxycarbonyl-5-hydroxy-quinolo[4,3-b]pyran-4-one-2-carboxylic acid] was tested. Which inhibition in vivo at 30 mg/kg did it give?
Answer: Its inhibition in vivo at 30 mg/kg is 52.7%.

Question: How did the inhibition in vivo at 30 mg/kg turn out when Cc1ccc2nc(O)c3c(=O)cc(C(=O)OCCC(C)C)oc3c2c1 [3-methyl-1-butyl ester of 9-methyl-5-hydroxy-quinolo[4,3-b]pyran-4-one-2-carboxylic acid] was run?
Answer: Its inhibition in vivo at 30 mg/kg is 87.2%.

Question: For CCCCc1ccc2nc(O)c3c(=O)cc(C(=O)OCCC(C)C)oc3c2c1 [3-methyl-1-butyl ester of 9-n-butyl-5-hydroxy-quinolo[4,3-b]pyran-4-one-2-carboxylic acid], which inhibition in vivo at 30 mg/kg is on record?
Answer: Its inhibition in vivo at 30 mg/kg is 64.5%.

Question: For CCC(C)CCOC(=O)c1cc(=O)c2c(O)nc3c(C)c(C)ccc3c2o1 (centres unmarked) [3-methyl-1-pentyl ester of 7,8-dimethyl-5-hydroxy-quinolo[4,3-b]pyran-4-one-2-carboxylic acid], which inhibition in vivo at 30 mg/kg is on record?
Answer: The inhibition in vivo at 30 mg/kg was 80.8%.

Question: With Cc1ccc2c(nc(O)c3c(=O)cc(C(=O)OC(C)C(C)C)oc32)c1C (centres unmarked) [3-methyl-2-butyl ester of 7,8-dimethyl-5-hydroxy-quinolo[4,3-b]pyran-4-one-2-carboxylic acid, reference compound] as the compound, how does the inhibition in vivo at 30 mg/kg read?
Answer: The inhibition in vivo at 30 mg/kg was 22.6%.

Question: With CCC(C)C(C)OC(=O)c1cc(=O)c2c(O)nc3c(C)c(C)ccc3c2o1 (centres unmarked) [3-methyl-2-pentyl ester of 7,8-dimethyl-5-hydroxy-quinolo[4,3-b]pyran-4-one-2-carboxylic acid] as the compound, how does the inhibition in vivo at 30 mg/kg read?
Answer: Its inhibition in vivo at 30 mg/kg is 68.3%.

Question: With CCC(CC)OC(=O)c1cc(=O)c2c(O)nc3c(C)c(C)ccc3c2o1 [3-pentyl ester of 7,8-dimethyl-5-hydroxy-quinolo[4,3-b]pyran-4-one-2-carboxylic acid] as the compound, how does the inhibition in vivo at 30 mg/kg read?
Answer: Its inhibition in vivo at 30 mg/kg is 65.3%.

Question: For Cc1ccc2c(nc(O)c3c(=O)cc(C(=O)OCCCc4ccccc4)oc32)c1C [3-phenyl-1-propyl ester of 7,8-dimethyl-5-hydroxy-quinolo[4,3-b]pyran-4-one-2-carboxylic acid, reference compound], which inhibition in vivo at 30 mg/kg is on record?
Answer: Its inhibition in vivo at 30 mg/kg is -7.2%.
